The IC50 is the concentration that inhibits the measured activity by half. In general, melting point refers to the temperature, or range, at which the solid turns liquid.

SMILES strings stand for the structures. Like-named read-outs stand apart in the source and are kept apart here.

For data set [1], the target named is T1, hCB1 (Homo sapiens, UniProt P21554). Kind of data set: Agonism of CB1 receptors expressed in CHO cells, forskolin cAMP assay (Protocol IX.2). In kind it is cell-based. To be noted: at 10 uM, h-CB1/CHO cells, cAMP; for activation at 10 µM: CHO. Set-up: expressed in transfected cells; host or cells: CHO (h-CB1/CHO, G418-selected). On the procedure:
(§1) IX. Assay for Determining Agonist and Antagonist Activity to CB1 and CB2 Receptors
(§2) 2. Agonism of CB1/CB2 Receptors Expressed in CHO Cells
(§3) h-CB1/CHO or h-CB2/CHO cells were grown in HAM's F12 DMEM medium (Sigma) with 10% FBS (Hyclone), 1% penicillin-streptomycin solution and 400 μg/ml of G418 (Sigma). 5000 cells were seeded per well in a 96 well plate and incubated for 24 hours at 37° C. in 5% CO2. On the day of assay, cells were washed with warm Krebs Buffer containing 0.1% fatty acid free (FAF) BSA (Sigma) and re-suspended in the same buffer containing 1 mM IBMX. […] At the end of incubation, cells were lysed using lysis reagent from the cAMP estimation kit and cAMP was quantitated by chemiluminescence method described in the manufacturer's instructions (DiscoveRX). EC50 values were calculated from dose response curves by nonlinear regression analysis using PRISM software.
(In general: Cyclic AMP is a second messenger, typically raised through Gs and lowered through Gi signalling.)

Data set [2] has as its target T2, hCB2 (Homo sapiens, UniProt P34972). Nature of the data set: Agonism of CB2 receptors expressed in CHO cells, forskolin cAMP assay (Protocol IX.2). In kind it is cell-based. Details: expressed in transfected cells; host or cells: CHO (h-CB2/CHO, G418-selected). On the procedure: as §1, §2
h-CB1/CHO or h-CB2/CHO cells were grown in HAM's F12 DMEM medium (Sigma) with 10% FBS (Hyclone), 1% penicillin-streptomycin solution and 400 μg/ml of G418 (Sigma). 5000 cells were seeded per well in a 96 well plate and incubated for 24 hours at 37° C. in 5% CO2. On the day of assay, cells were washed with warm Krebs Buffer containing 0.1% fatty acid free (FAF) BSA (Sigma) and re-suspended in the same buffer containing 1 mM IBMX. Test compound or CP 55,940 as a reference compound (30 nM final concentration for CB1 testing and 10 μM of the same for CB2 testing) diluted in FFB+IBMX+Krebs buffer was added to the cells followed by forskolin addition (10 uM final concentration) and incubated for 30 minutes at room temperature. At the end of incubation, cells were lysed using lysis reagent from the cAMP estimation kit and cAMP was quantitated by chemiluminescence method described in the manufacturer's instructions (DiscoveRX). EC50 values were calculated from dose response curves by nonlinear regression analysis using PRISM software.

Data set [3] deals with T2, hCB2. Kind of data set: In vitro binding assay using hCB2-CHO membranes, [3H]-CP-55,940 displacement (Protocol IV). Details: expressed in transfected cells; host or cells: CHO (hCB2-CHO, generated in-house). Conditions: 1 h, read-out: % Displacement Protocol IV. Put shortly:
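Displacement of [3H]-CP-55,940 (0.75 nM) from membranes of CHO cells expressing human CB2 (25-50 μg) was measured in Tris-BSA buffer pH 7.4 with 5 mM MgCl2, 1 mM EDTA, 0.1% BSA, 1 h at 30 °C. Test compounds were at 300 nM final; nonspecific binding defined with 0.5 μM CP-55,940. Values are % displacement of specific binding.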

Data set [4] deals with T2, hCB2. Kind of data set: Antagonism of CB2 receptors expressed in CHO cells, cAMP assay against CP 55,940 (Protocol IX.1). To be noted: CHO, h-CB2/CHO cells, vs 10 nM CP 55,940. Type of data set: cell-based. Details: expressed in transfected cells; host or cells: CHO (h-CB2/CHO, G418-selected). The method, then: as §1
(§4) 1. Antagonism of CB1/CB2 Receptors Expressed in CHO Cells.
h-CB1/CHO or h-CB2/CHO cells were grown in HAM's F12 DMEM medium (Sigma) with 10% FBS (Hyclone), 1% penicillin-streptomycin solution and 400 μg/ml of G418 (Sigma). 5000 cells were seeded per well in a 96 well plate and incubated for 24 hours at 37° C. in 5% CO2. On the day of assay, cells were washed with warm Krebs buffer containing 0.1% fatty acid free (FAF) BSA (Sigma) and re-suspended in the same buffer containing 1 mM IBMX. Test antagonist or reference compound (AM 251 (1-(2,4-dichlorophenyl)-5-(4-iodophenyl)-4-methyl-N-(1-piperidyl)pyrazole-3-carboxamide) for CB1 and SR144528 for CB2) diluted in FAFBSA+IBMX+Krebs buffer was added to the cells and incubated for 10 minutes at room temperature. CP 55,940 (30 nM final concentration for CB1 testing and 10 nM of the same for CB2 testing) was added to cells followed by forskolin (10 μM final concentration) and incubated for 30 minutes at room temperature. At the end of incubation, cells were lysed using lysis reagent from the cAMP estimation kit and cAMP was quantitated by the chemiluminescence method described in the manufacturer's instructions (DiscoveRX). EC50 values were calculated from dose response curves by nonlinear regression analysis using PRISM software.

Data set [5] deals with T3, CB1 (Rattus norvegicus, UniProt P20272). Nature of the data set: Rat CB1 receptor binding using brain membrane, [3H]SR141716A displacement (Protocol I). Details: CB1 receptor present in a rat brain membrane preparation; from tissue; host or cells: rat brain membrane; inhibition: dose or concentration left out as unconfirmed. Conditions: 1 h; rat brain membrane, [3H]SR141716A displacement; read-out: % Displacement Protocol I.

In data set [6] the target is T1, hCB1. Nature of the data set: Antagonism of CB1 receptors expressed in CHO cells, cAMP assay against CP 55,940 (Protocol IX.1). To be noted: at 10 uM, h-CB1/CHO cells, cAMP, vs 30 nM CP 55,940; read-out: hCB1 Antagonism. Set-up: expressed in transfected cells; host or cells: CHO (h-CB1/CHO, G418-selected). Type of data set: cell-based. On the procedure: as §1, §4
as §3, with “warm Krebs buffer containing 0.1%” for “warm Krebs Buffer containing 0.1%”, “quantitated by the chemiluminescence method” for “quantitated by chemiluminescence method”

For data set [7], the target named is T3, CB1. Kind of data set: GTPγS binding assay, CB1 functional assay in rat cerebellar membrane (Protocol VIII). Type of data set: biochemical. Details: 10 μg rat cerebellum membrane; from tissue; host or cells: rat cerebellum membrane, prepared in-house. Put shortly:
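Rat cerebellar membranes (10 μg) incubated 1 h at 30 °C with 0.2 nM [35S]GTPγS, 50 μM GDP, and compound at 1 μM or 300 nM, alone or with 1 μM WIN 55,212-2, in Tris/MgCl2/EGTA/NaCl pH 7.4. Filter-bound radioactivity counted; percent stimulation calculated against basal specific binding (nonspecific defined by 10 μM GTPγS).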
For orientation: Binding of GTPγS marks nucleotide exchange on a G protein.

[8] abbreviates: hCB2 Agonism IC50, h-CB2/CHO cells, cAMP.
Where [9] appears, read: hCB2-CHO membranes, [3H]-CP-55,940 displacement.
The mark [10] stands for this setting: h-CB2/CHO cells, cAMP, read-out: hCB2 Agonism IC50.

T2 sequence (P34972 whole entry): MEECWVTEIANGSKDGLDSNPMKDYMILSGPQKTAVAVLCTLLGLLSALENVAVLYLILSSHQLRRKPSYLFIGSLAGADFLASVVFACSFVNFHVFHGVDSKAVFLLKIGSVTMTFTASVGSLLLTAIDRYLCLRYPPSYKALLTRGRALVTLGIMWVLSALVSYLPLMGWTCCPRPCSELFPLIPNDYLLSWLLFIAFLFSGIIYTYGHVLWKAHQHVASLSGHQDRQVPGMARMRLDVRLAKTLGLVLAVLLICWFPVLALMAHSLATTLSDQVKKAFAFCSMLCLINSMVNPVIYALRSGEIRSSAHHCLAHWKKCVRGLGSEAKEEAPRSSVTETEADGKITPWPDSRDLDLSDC
T3 sequence (P20272 whole entry): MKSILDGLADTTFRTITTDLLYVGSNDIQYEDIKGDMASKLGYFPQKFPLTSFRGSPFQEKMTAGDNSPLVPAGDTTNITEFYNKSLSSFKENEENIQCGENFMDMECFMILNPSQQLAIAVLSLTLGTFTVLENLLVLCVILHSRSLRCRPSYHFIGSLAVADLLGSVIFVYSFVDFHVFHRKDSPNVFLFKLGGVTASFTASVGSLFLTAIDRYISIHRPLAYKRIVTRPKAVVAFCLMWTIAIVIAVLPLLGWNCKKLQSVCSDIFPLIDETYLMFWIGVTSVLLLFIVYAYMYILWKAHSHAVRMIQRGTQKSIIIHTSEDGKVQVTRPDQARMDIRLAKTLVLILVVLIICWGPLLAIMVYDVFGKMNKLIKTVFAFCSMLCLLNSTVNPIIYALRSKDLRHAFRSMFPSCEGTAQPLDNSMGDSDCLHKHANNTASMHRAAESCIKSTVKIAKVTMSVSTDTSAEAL
T1 sequence (P21554 whole entry): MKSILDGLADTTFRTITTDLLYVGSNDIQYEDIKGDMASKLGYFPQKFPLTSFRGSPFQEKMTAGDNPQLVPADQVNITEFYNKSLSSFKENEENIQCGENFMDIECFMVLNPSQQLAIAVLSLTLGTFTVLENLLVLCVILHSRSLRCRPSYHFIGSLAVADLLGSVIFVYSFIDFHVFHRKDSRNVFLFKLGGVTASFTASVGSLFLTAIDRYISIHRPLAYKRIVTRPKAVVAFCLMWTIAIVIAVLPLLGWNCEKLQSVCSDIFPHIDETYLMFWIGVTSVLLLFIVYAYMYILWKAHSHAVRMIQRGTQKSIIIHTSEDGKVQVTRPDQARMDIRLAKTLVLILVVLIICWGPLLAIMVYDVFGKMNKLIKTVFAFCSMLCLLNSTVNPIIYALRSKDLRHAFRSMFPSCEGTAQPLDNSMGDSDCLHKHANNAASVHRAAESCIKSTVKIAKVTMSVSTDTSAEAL

Compound `O=C(NNc1cccc(F)c1)c1nn(-c2ccc(Cl)cc2Cl)c2c1C1CCC2C1` (stereo not drawn) [Example 266, N(3)-[(3-Fluorophenyl)amino]-1-(2,4-dichlorophenyl)-4,5,6,7-tetrahydro-1H-4,7-methano-indazole-3-carboxamide] registered a melting point of 190 °C. Also, at hCB1 [1], the activation at 10 µM was found to be 12.1%. On hCB2 [2] (setting [8]), the half-inhibitory concentration (IC50) was 14 nM. In addition, the inhibition at 0.3 µM at hCB2 [3] (setting [9]) was found to be 62%. The compound further registered an inhibition at 10 µM against hCB2 [4] of 27.7%. Further, the inhibition at CB1 [5] amounted to 34.5%.

For the compound `O=C(NC1CCCCC1)c1nn(-c2ccccc2)c2c1C1CCC2C1` (stereo not drawn) [Example 202, N(3)-Cyclohexyl-1-phenyl-4,5,6,7-tetrahydro-1H-4,7-methano-indazole-3-carboxamide], the melting point is 107 °C. The activation at 10 µM on hCB1 [1] is 0%. The “hCB2 Agonism” value at hCB2 [2] (bare number, no unit or concentration given) was 16.79. Besides, on hCB2 [3] (setting [9]), the inhibition at 0.3 µM was found to be 70.1%. In addition, on CB1 [5], the inhibition turned out to be 28.2%. Moreover, the inhibition at 10 µM on hCB1 [6] was determined as 0%.

`O=C(NNc1ccc(Cl)cc1Cl)c1nn(-c2ccc(F)cc2F)c2c1C1CC3CC(C1)CC2C3` [Example 150, N(7)-(2,4-Dichlorophenylamino)-5-(2,4-difluorophenyl)-5,6-diazatetracyclo[7.3.1.1^3,11.0^4,8]tetradeca-4(8),6-diene-7-carboxamide]: the melting point came to 162 °C. The activation at 10 µM on hCB1 [1] amounted to 61.1%. Also, the inhibition at 10 µM at hCB1 [6] amounted to 42.9%.

Take `CC(C)(C)NC(=O)c1nn(-c2ccc(F)cc2F)c2c1[C@@H]1CC[C@H]2C1` (single isomer, unassigned) [Example 304]: at hCB1 [1], the “hCB1 Agonism” value came out at 55% at. Also, the IC50 on hCB2 [2] (setting [10]) was found to be 0.93 nM. For the same compound, the inhibition at 10 µM was found to be 51.6% against hCB2 [4] and 0% at hCB1 [6].

In the case of `O=C(NCc1ccc(Cl)cc1Cl)c1nn(-c2ccc(Cl)cc2)c2c1C1CCC2C1` (stereo not drawn) [Example 223, N(3)-(2,4-Dichlorobenzyl)-1-(4-chlorophenyl)-4,5,6,7-tetrahydro-1H-4,7-methano-indazole-3-carboxamide], the melting point lay in the range of 108 to 111 °C. At hCB2 [2] (setting [8]), this compound yielded an IC50 of 1.49 nM. The inhibition at 0.3 µM at hCB2 [3] (setting [9]) was 59.5%. The inhibition at 10 µM at hCB2 [4] stood at 24.4%. Besides, the inhibition on CB1 [5] amounted to 52.1%. At hCB1 [6], the inhibition at 10 µM is 0%.

With `O=C(NCc1ccccc1Cl)c1nn(-c2ccc(F)cc2F)c2c1C1CC3CC(C1)CC2C3` [Example 149, N(7)-(2-Chlorobenzyl)-5-(2,4-difluorophenyl)-5,6-diazatetracyclo[7.3.1.1^3,11.0^4,8]tetradeca-4(8),6-diene-7-carboxamide], the melting point came out at 136 °C. In addition, the activation at 10 µM at hCB1 [1] stood at 79.9%. For the same compound, on hCB1 [6], the inhibition at 10 µM turned out to be 16%.

In turn, `O=C(NCC1CCCCC1)c1nn(-c2ccc(Cl)cc2Cl)c2c1C1CCC2C1` (stereo not drawn) [Example 238, N(3)-Cyclohexylmethyl-1-(2,4-dichlorophenyl)-4,5,6,7-tetrahydro-1H-4,7-methano-indazole-3-carboxamide] registered a melting point of 111 to 113 °C. Also, the activation at 1 µM at CB1 [7] (1 h, GTPγS binding over basal, rat cerebellar membrane, tested at 1 uM, read-out: Per Se % Stimulation) turned out to be 0.4%. Moreover, the inhibition at 1 µM on CB1 [7] (GTPγS binding, tested at 1 uM in presence of 1 μM WIN 55,212-2, read-out: % Inhibition of WIN-55212-2 induced stimulation) stood at 59.1%. The “hCB2 Agonism” value at hCB2 [2] (at 10 uM, h-CB2/CHO cells, cAMP) is reported as 55.05% at. Also, on hCB2 [4], the inhibition at 10 µM stood at 24.5%. Moreover, on CB1 [5], the inhibition was 73.9%.

The compound `O=C(NC(CO)c1ccccc1)c1nn(-c2ccc(F)cc2F)c2c1C1CCC2C1` [Example 302, N5-[(1S)-2-Hydro-1-phenylethyl]-3-(2,4-difluorophenyl)-3,4-diazatricyclo[5.2.1.0.^2,6]deca-2(6),4-diene-5-carboxamide] gave a melting point of 91 °C. Besides, the activation at 10 µM at hCB1 [1] worked out at 19%. Besides, the IC50 at hCB2 [2] (setting [10]) is 9.75 nM. Also, at hCB2 [3], the inhibition at 0.3 µM amounted to 71.8%. Besides, at hCB2 [4], the inhibition at 10 µM was found to be 0%.

For the compound `O=C(NNc1ncccc1Cl)c1nn(-c2ccc(Cl)cc2)c2c1C1CC3CC(C1)CC2C3` [Example 134, N(7)-(3-Chloro-2-pyridylamino)-5-(4-chlorophenyl)-5,6-diazatetracyclo[7.3.1.1^3,11.0^4,8]tetradeca-4(8),6-diene-7-carboxamide], the melting point lay in the range of 200 to 203 °C. The activation at 10 µM on hCB1 [1] came out at 75.6%. The activation at 0.3 µM at CB1 [7] (1 h, GTPγS binding over basal, rat cerebellar membrane, tested at 300 nM, read-out: Per Se % Stimulation) is -6%. Besides, at CB1 [7] (GTPγS binding, tested at 300 nM in presence of 1 μM WIN 55,212-2, read-out: % Inhibition of WIN-55212-2 induced stimulation), the inhibition at 0.3 µM was 58.1%. On CB1 [5], the inhibition amounted to 89.6%. Moreover, the inhibition at 10 µM on hCB1 [6] came to 17.5%.

These data come from patent US7923465B2, “Cannabinoid receptor ligands, pharmaceutical compositions containing them, and process for their preparation” (priority 2005, dated 2011).
